From US20230226160A1, “COMPOSITIONS AND METHODS FOR TREATING BACTERIAL INFECTIONS” (MUCPHARM PTY LTD, priority 2020, published 2023)
Entries after “also recorded” stand apart in the source; their conditions may differ.

Legend:
Assay type in all cases: cell-based
biofilm = assay: Inventor's summary statements on biofilm experiments; conditions: at therapeutically appropriate dosages
[1] = system: Pseudomonas aeruginosa ATCC 31461 biofilms; assay: Anti-biofilm activity on 48-hour Pseudomonas aeruginosa ATCC 31461 biofilms, 4-hour treatment, crystal violet; conditions: FIG. 6
Protocol: Each plate was then incubated at 37° C. for 24 hrs and, afterwards, the plates were treated with various concentrations of acetylcysteine, bromelain and/or ampicillin. The plate was then incubated at 37° C. for 4 hrs.
(§1) After treatment, the cells were fixed with 99% methanol and stained with 1% crystal violet. The stained biofilm was dissolved with 33% acetic acid and the absorbance was read at 590 nm. The results were analyzed using Prism GraphPad software.

[2] = system: Pseudomonas aeruginosa PA01 398 biofilms; assay: Anti-biofilm activity on 48-hour Pseudomonas aeruginosa PA01 398 biofilms, 4-hour combined or staged treatment, crystal violet; conditions: NAC 25 and 50 mg/ml single agent, FIG. 9
Protocol: Each plate was then incubated at 37° C. for 24 hrs and, afterwards, the plates were treated with various concentrations of acetylcysteine, bromelain, gentamicin, ampicillin and combinations thereof. The plate was then incubated at 37° C. for 4 hrs.
as §1
Each plate was then incubated at 37° C. for 24 hrs and, afterwards, the plates were treated with various concentrations of acetylcysteine, bromelain and either gentamicin or ampicillin. The plate was then incubated at 37° C. for 4 hrs. After treatment, the cells were fixed with 99% methanol and stained with 1% crystal violet. The stained biofilm was dissolved with 33% acetic acid and the absorbance was read at 590 nm. The results were analyzed using Prism GraphPad software.
In the first series of experiments, the results of which are shown in FIG. 12, 48-hour Pseudomonas aeruginosa PA01 398 biofilms were treated for 4-hours with the compositions shown in the table including ampicillin (50-200 μg/mL), bromelain (25 μg/mL) and acetylcysteine (10 mg/mL) in 5% glucose. […]

[3] = system: Staphylococcus aureus ATCC 6538 biofilms; assay: Anti-biofilm activity on preformed 24-hour/48-hour Staphylococcus aureus ATCC 6538 biofilms, 4-hour treatment, crystal violet, 590 nm; conditions: 24-hour biofilm
Protocol: The plates were then incubated at 37° C. for 4 hrs. After treatment, the cells were fixed with 99% methanol and stained with 1% crystal violet. The stained biofilm was dissolved with 33% acetic acid and the absorbance was read at 590 nm. The results were analyzed using Prism GraphPad software.

| Compound | effect of acetylcysteine alone on biofilm (biofilm) | effectiveness on biofilm ([1]; acetylcysteine 25 mg/mL single agent) | effectiveness on biofilm ([1]; acetylcysteine 50 mg/ml single agent) | effect on biofilm as single agent [2] | effect on biofilm eradication ([3]; acetylcysteine 20 mg/mL single treatment, 4-hour, FIG. 3) | biofilm eradication ([3]; gentamicin 12 μg/ml single agent, 4-hour, FIG. 5) | effectiveness of single agent (eradication) ([3]; gentamicin 16 μg/ml single agent, compared to the concentration in combination, FIG. 5) | biofilm eradication ([3]; gentamicin 35 μg/ml single agent, most effective gentamicin treatment) |
| --- | --- | --- | --- | --- | --- | --- | --- | --- |
| CC(=O)N[C@@H](CS)C(=O)O [acetylcysteine] | no appreciable effect; also recorded: relatively ineffective | not effective | moderately effective | antagonistic | no effect on biofilm eradication | – | – | – |
| gentamicin | – | – | – | – | – | 2% | 5% | approximately 60% |
